# Laboratory results published in PubChem BioAssay AID2060882 (Molecular Pharmacology Branch, DTP, NCI, 2025).
# Tested on: 898857-211-R-J1-PDC complex spheroids, growth % test/control
# Experiment: Anticancer human tumor 898857-211-R-J1-PDC patient-derived melanoma cell line growth inhibition [RAS]
# Conditions: for IC50: curve of first compound; for viability, T/C: stronger effect = lower value
# Outline: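 Multi-cell-type spheroids: tumor cells plus HUVEC endothelial cells and mesenchymal stem cells. RAS-pathway inhibitors were combined with targeted agents, each dosed in half-log steps down from clinical Cmax, or from 10 microM when Cmax was unknown.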
# [1] = second compound 0.00316 µM, first compound 0.0316 µM
# [2] = second compound 0.00316 µM, first compound 0.1 µM
# [3] = second compound 0.00316 µM, first compound 0.316 µM
# [4] = second compound 0.00316 µM, first compound 1 µM
# [5] = second compound 0.00316 µM, first compound 3.16 µM
# [6] = second compound 0.00316 µM, first compound 10 µM
# [7] = second compound 0.01 µM, first compound 0.0316 µM
# [8] = second compound 0.01 µM, first compound 0.1 µM
# [9] = second compound 0.01 µM, first compound 0.316 µM
# [10] = second compound 0.01 µM, first compound 1 µM
# [11] = second compound 0.01 µM, first compound 3.16 µM
# [12] = second compound 0.01 µM, first compound 10 µM
# [13] = second compound 0.0316 µM, first compound 0.0316 µM
# [14] = second compound 0.0316 µM, first compound 0.1 µM
# [15] = second compound 0.0316 µM, first compound 0.316 µM
# [16] = second compound 0.0316 µM, first compound 1 µM
# [17] = second compound 0.0316 µM, first compound 3.16 µM
# [18] = second compound 0.0316 µM, first compound 10 µM
# [19] = second compound 0.1 µM, first compound 0.0316 µM
# [20] = second compound 0.1 µM, first compound 0.1 µM
# [21] = second compound 0.1 µM, first compound 0.316 µM
# [22] = second compound 0.1 µM, first compound 1 µM
# [23] = second compound 0.1 µM, first compound 3.16 µM
# [24] = second compound 0.1 µM, first compound 10 µM
# [25] = second compound 0.316 µM, first compound 0.0316 µM
# [26] = second compound 0.316 µM, first compound 0.1 µM
# [27] = second compound 0.316 µM, first compound 0.316 µM
# [28] = second compound 0.316 µM, first compound 1 µM
# [29] = second compound 0.316 µM, first compound 3.16 µM
# [30] = second compound 0.316 µM, first compound 10 µM
# [31] = second compound 1 µM, first compound 0.0316 µM
# [32] = second compound 1 µM, first compound 0.1 µM
# [33] = second compound 1 µM, first compound 0.316 µM
# [34] = second compound 1 µM, first compound 1 µM
# [35] = second compound 1 µM, first compound 3.16 µM
# [36] = second compound 1 µM, first compound 10 µM
# 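Note: spheroids exposed to compound for seven days before readout.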
# 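Throughout, for viability, T/C: 100% = DMSO vehicle control wells.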
smiles,measurement,setting,value
CC(C)NCC(C(=O)N1CCN(c2ncnc3c2C(C)CC3O)CC1)c1ccc(Cl)cc1 (stereo unspecified) + C=CC(=O)N1CCN(c2nc(OCC3CCCN3C)nc3c(F)c(-c4nc(N)cc(C)c4C(F)(F)F)c(Cl)cc23)C(C)C1,IC50,second compound 0.00316 µM,> 10 µM
same,IC50,second compound 0.01 µM,> 10 µM
same,IC50,second compound 0.0316 µM,> 10 µM
same,IC50,second compound 0.1 µM,> 10 µM
same,IC50,second compound 0.316 µM,> 10 µM
same,IC50,second compound 1 µM,> 10 µM
same,"viability, T/C",[1],108%
same,"viability, T/C",[2],99.8%
same,"viability, T/C",[3],97.5%
same,"viability, T/C",[4],89.2%
same,"viability, T/C",[5],81.2%
same,"viability, T/C",[6],70.1%
same,"viability, T/C",[7],101%
same,"viability, T/C",[8],104%
same,"viability, T/C",[9],104%
same,"viability, T/C",[10],85.8%
same,"viability, T/C",[11],85.9%
same,"viability, T/C",[12],70.7%
same,"viability, T/C",[13],111%
same,"viability, T/C",[14],101%
same,"viability, T/C",[15],114%
same,"viability, T/C",[16],103%
same,"viability, T/C",[17],78.9%
same,"viability, T/C",[18],60.8%
same,"viability, T/C",[19],118%
same,"viability, T/C",[20],110%
same,"viability, T/C",[21],102%
same,"viability, T/C",[22],88.8%
same,"viability, T/C",[23],91.8%
same,"viability, T/C",[24],66.7%
same,"viability, T/C",[25],114%
same,"viability, T/C",[26],129%
same,"viability, T/C",[27],126%
same,"viability, T/C",[28],112%
same,"viability, T/C",[29],93.3%
same,"viability, T/C",[30],71.4%
same,"viability, T/C",[31],116%
same,"viability, T/C",[32],121%
same,"viability, T/C",[33],117%
same,"viability, T/C",[34],112%
same,"viability, T/C",[35],97.5%
same,"viability, T/C",[36],70.4%
CC(C)n1nc(-c2ccc3oc(N)nc3c2)c2c(N)ncnc21 + C=CC(=O)N1CCN(c2nc(OCC3CCCN3C)nc3c(F)c(-c4nc(N)cc(C)c4C(F)(F)F)c(Cl)cc23)C(C)C1,IC50,second compound 0.00316 µM,0.0288 µM
same,IC50,second compound 0.01 µM,0.0336 µM
same,IC50,second compound 0.0316 µM,0.0269 µM
same,IC50,second compound 0.1 µM,0.035 µM
same,IC50,second compound 0.316 µM,0.0345 µM
same,IC50,second compound 1 µM,0.0379 µM
same,"viability, T/C","second compound 0.00316 µM, first compound 0.000316 µM",103%
same,"viability, T/C","second compound 0.00316 µM, first compound 0.001 µM",96.3%
same,"viability, T/C","second compound 0.00316 µM, first compound 0.00316 µM",99.6%
same,"viability, T/C","second compound 0.00316 µM, first compound 0.01 µM",75.9%
same,"viability, T/C",[1],48.5%
same,"viability, T/C",[2],19.9%
same,"viability, T/C","second compound 0.01 µM, first compound 0.000316 µM",107%
same,"viability, T/C","second compound 0.01 µM, first compound 0.001 µM",95.1%
same,"viability, T/C","second compound 0.01 µM, first compound 0.00316 µM",92.1%
same,"viability, T/C","second compound 0.01 µM, first compound 0.01 µM",77.9%
same,"viability, T/C",[7],49.9%
same,"viability, T/C",[8],21.3%
same,"viability, T/C","second compound 0.0316 µM, first compound 0.000316 µM",108%
same,"viability, T/C","second compound 0.0316 µM, first compound 0.001 µM",99.9%
same,"viability, T/C","second compound 0.0316 µM, first compound 0.00316 µM",91.7%
same,"viability, T/C","second compound 0.0316 µM, first compound 0.01 µM",77.5%
same,"viability, T/C",[13],44.2%
same,"viability, T/C",[14],20.4%
same,"viability, T/C","second compound 0.1 µM, first compound 0.000316 µM",104%
same,"viability, T/C","second compound 0.1 µM, first compound 0.001 µM",102%
same,"viability, T/C","second compound 0.1 µM, first compound 0.00316 µM",97.4%
same,"viability, T/C","second compound 0.1 µM, first compound 0.01 µM",85%
same,"viability, T/C",[19],52.7%
same,"viability, T/C",[20],19.8%
same,"viability, T/C","second compound 0.316 µM, first compound 0.000316 µM",116%
same,"viability, T/C","second compound 0.316 µM, first compound 0.001 µM",103%
same,"viability, T/C","second compound 0.316 µM, first compound 0.00316 µM",109%
same,"viability, T/C","second compound 0.316 µM, first compound 0.01 µM",89.3%
same,"viability, T/C",[25],52.4%
same,"viability, T/C",[26],20.8%
same,"viability, T/C","second compound 1 µM, first compound 0.000316 µM",122%
same,"viability, T/C","second compound 1 µM, first compound 0.001 µM",115%
same,"viability, T/C","second compound 1 µM, first compound 0.00316 µM",111%
same,"viability, T/C","second compound 1 µM, first compound 0.01 µM",84.5%
same,"viability, T/C",[31],56%
same,"viability, T/C",[32],22.7%
CC(Nc1ccc2c(c1)OCCn1cc(N3C(=O)OCC3C(F)F)nc1-2)C(N)=O (stereo unspecified) + C=CC(=O)N1CCN(c2nc(OCC3CCCN3C)nc3c(F)c(-c4nc(N)cc(C)c4C(F)(F)F)c(Cl)cc23)C(C)C1,IC50,second compound 0.00316 µM,> 10 µM
same,IC50,second compound 0.01 µM,> 10 µM
same,IC50,second compound 0.0316 µM,> 10 µM
same,IC50,second compound 0.1 µM,> 10 µM
same,IC50,second compound 0.316 µM,> 10 µM
same,IC50,second compound 1 µM,> 10 µM
same,"viability, T/C",[1],106%
same,"viability, T/C",[2],91.2%
same,"viability, T/C",[3],98.7%
same,"viability, T/C",[4],93.9%
same,"viability, T/C",[5],94.8%
same,"viability, T/C",[6],72.8%
same,"viability, T/C",[7],94.7%
same,"viability, T/C",[8],103%
same,"viability, T/C",[9],93.9%
same,"viability, T/C",[10],87.6%
same,"viability, T/C",[11],95.6%
same,"viability, T/C",[12],71.4%
same,"viability, T/C",[13],108%
same,"viability, T/C",[14],103%
same,"viability, T/C",[15],98.7%
same,"viability, T/C",[16],91.9%
same,"viability, T/C",[17],81.8%
same,"viability, T/C",[18],75.7%
same,"viability, T/C",[19],99.8%
same,"viability, T/C",[20],105%
same,"viability, T/C",[21],107%
same,"viability, T/C",[22],99.1%
same,"viability, T/C",[23],87.9%
same,"viability, T/C",[24],74.5%
same,"viability, T/C",[25],118%
same,"viability, T/C",[26],120%
same,"viability, T/C",[27],108%
same,"viability, T/C",[28],97%
same,"viability, T/C",[29],94.4%
same,"viability, T/C",[30],70.1%
same,"viability, T/C",[31],113%
same,"viability, T/C",[32],124%
same,"viability, T/C",[33],102%
same,"viability, T/C",[34],111%
same,"viability, T/C",[35],90.1%
same,"viability, T/C",[36],71.4%
